Measured values: patent publication US8431593B2, “Heteroaryl amide derivatives” (H. Lundbeck A/S, priority 2006, dated 2013)
Read-outs that look alike come from different tables or passages of the source.

Target: T1, P2X7 receptor (Homo sapiens, UniProt Q99572)
T1 construct: host or cells: SH-SY5Y
T1 sequence (Q99572 1-595): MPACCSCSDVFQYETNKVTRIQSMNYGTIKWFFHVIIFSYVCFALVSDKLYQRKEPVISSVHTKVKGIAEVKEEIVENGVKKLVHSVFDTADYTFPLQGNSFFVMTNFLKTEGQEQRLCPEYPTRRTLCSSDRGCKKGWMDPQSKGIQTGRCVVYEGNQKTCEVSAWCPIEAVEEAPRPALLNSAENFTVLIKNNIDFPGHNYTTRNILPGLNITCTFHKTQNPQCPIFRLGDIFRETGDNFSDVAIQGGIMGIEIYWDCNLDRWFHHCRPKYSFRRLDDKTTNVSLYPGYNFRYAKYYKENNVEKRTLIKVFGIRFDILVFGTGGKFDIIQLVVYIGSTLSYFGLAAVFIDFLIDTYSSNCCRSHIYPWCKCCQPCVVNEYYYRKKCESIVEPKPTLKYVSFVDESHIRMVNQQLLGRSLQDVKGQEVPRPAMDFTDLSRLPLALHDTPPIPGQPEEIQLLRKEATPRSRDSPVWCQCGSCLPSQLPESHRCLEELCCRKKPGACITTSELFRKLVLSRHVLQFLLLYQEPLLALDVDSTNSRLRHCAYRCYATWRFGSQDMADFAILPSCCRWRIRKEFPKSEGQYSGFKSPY
Assay: P2X7 calcium mobilization assay, high throughput, antagonist activity (Example 4A)
Assay type: cell-based
Description: One day prior to the experiment, cells are plated at a density of 100,000 cells/well in a 96 well black/clear TC plate (Corning® Costar®, Sigma-Aldrich Co., St. Louis, Mo.). […] After one hour dye incubation, wells are rinsed once with 50 μL assay solution, and are then incubated for an hour at room temperature with 100 μL assay solution containing the test compound. […] After the one hour incubation, plates are transferred to a FLIPR^TETRA instrument (Molecular Devices, Sunnyvale, Calif.) for calcium mobilization analysis.
First, the average maximum relative fluorescent unit (RFU) response from the negative control wells (no agonist) is subtracted from the maximum response detected for each of the other experimental wells. Second, average maximum RFU response is calculated for the positive control wells (agonist wells).

[1] = fluorescence response of cells exposed to 80 μM 2′(3′)-O-(4-benzoyl-benzoyl)adenosine 5′-triphosphate, Example 4A, read-out: IC50
[2] = 50% decrease in the fluorescence response of cells exposed to 80 μM of 2′(3′)-O-(4-benzoyl-benzoyl)adenosine 5′-triphosphate, Example 4A, read-out: IC50
[3] = 50% decrease in the fluorescence response of cells exposed to 80 μM of 2′(3′)-O-(4-benzoyl-benzoyl)adenosine 5′-triphosphate, determined as in Example 4A, read-out: IC50
[4] = 50% decrease in the fluorescence response of cells exposed to 80 μM 2′(3′)-O-(4-benzoyl-benzoyl)adenosine 5′-triphosphate, Example 4A, read-out: IC50

`O=C(O)CSCc1cn2c(C(=O)NCC34CC5CC(CC(C5)C3)C4)cccc2n1` [Compound 287, [({5-[(adamantan-1-ylmethyl)carbamoyl]imidazo[1,2-a]pyridin-2-yl}methyl)thio]acetic acid] was tested, and the IC50 [1] was under 2000 nM.
`N[C@@H]1CCN(Cc2cn3c(C(=O)NCCC45CC6CC(CC(C6)C4)C5)cccc3n2)C1` [Compound 248, N-(2-adamantan-1-ylethyl)-2-{[(3R)-3-aminopyrrolidin-1-yl]methyl}imidazo[1,2-a]pyridine-5-carboxamide] showed an IC50 [1] of under 2000 nM.
In the case of `O=C(NCCN1CCOCC1)c1cn2c(C(=O)NCC34CC5CC(CC(C5)C3)C4)cccc2n1` [Compound 648, 5-N-(adamantan-1-ylmethyl)-2-N-(2-morpholin-4-ylethyl)imidazo[1,2-a]pyridine-2,5-dicarboxamide], the IC50 [2] is reported as under 2000 nM.
Work on `CC1(C)[C@H]2CC[C@@H](CNC(=O)c3cccc4nc(C(=O)N5CCCNCC5)cn34)[C@@H]1C2` [Compound 304, 2-(1,4-diazepan-1-ylcarbonyl)-N-{[(1S,2R,5S)-6,6-dimethylbicyclo[3.1.1]hept-2-yl]methyl}imidazo[1,2-a]pyridine-5-carboxamide] yielded an IC50 [1] of under 2000 nM.
`O=C(Cc1cn2c(C(=O)NCC3(c4ccc(C(F)(F)F)cc4)CCCCC3)cccc2n1)NCC(F)(F)F` [Compound 873, 2-{2-oxo-2-[(2,2,2-trifluoroethyl)amino]ethyl}-N-({1-[4-(trifluoromethyl)phenyl]cyclohexyl}methyl) imidazo[1,2-a] pyridine-5-carboxamide] gave an IC50 [3] of under 2000 nM.
`NC(=O)c1cccc(NC(=O)Cc2cn3c(C(=O)NCC4CCCCCC4)cccc3n2)c1` [Compound 955, 2-{2-[(3-carbamoylphenyl)amino]-2-oxoethyl}-N-(cycloheptylmethyl) imidazo[1,2-a] pyridine-5-carboxamide] gave an IC50 [3] of under 2000 nM.
`CCOC(=O)c1cn2c(C(=O)NCC(CC(C)C)c3ccccc3)cccc2n1` (centres unmarked) [Compound 128, ethyl 5-[(4-methyl-2-phenyl-pentyl)carbamoyl]imi-dazo[1,2-a]pyridine-2-carboxylate] gave an IC50 of under 2000 nM.
In the case of `COCC1CCN(C(=O)c2cn3c(NC(=O)CC45CC6CC(CC(C6)C4)C5)cccc3n2)CC1` [Compound 396, 2-adamantan-1-yl-N-(2-{[4-(methoxymethyl)piperidin-1-yl]carbonyl}imidazo[1,2-a]pyridin-5-yl)acetamide], the IC50 [1] is reported as under 2000 nM.
`CO[C@H]1CCN(C(=O)Cc2cn3c(C(=O)NCC45CC6CC(CC(C6)C4)C5)cccc3n2)C1` [Compound 175, N-(adamantan-1-ylmethyl)-2-{2-[(3S)-3-methoxypyrrolidin-1-yl]-2-oxoethyl}imidazo[1,2-a]pyridine-5-carboxamide] was tested, and the IC50 (SH-SY5Y cells, 50% decrease in fluorescence response to 80 μM BzATP, read-out: IC50) was under 2000 nM.
In the case of `CC(C)(C)CCNC(=O)Cc1cn2c(C(=O)NCC3(c4ccc(Cl)cc4)CCOCC3)cccc2n1` [Compound 882, N-{[4-(4-chlorophenyl)tetrahydro-2H-pyran-4-yl]methyl}-2-{2-[(3,3-dimethylbutyl)amino]-2-oxoethyl}imidazo[1,2-a]pyridine-5-carboxamide], the IC50 [3] is reported as under 2000 nM.
Work on `NC1CCN(C(=O)c2cn3c(C(=O)NCC45CC6CC(CC(C6)C4)C5)cccc3n2)CC1` [Compound 626, N-(adamantan-1-ylmethyl)-2-[(4-aminopiperidin-1-yl)carbonyl]imidazo[1,2-a]pyridine-5-carboxamide] yielded an IC50 [2] of under 2000 nM.
`CC(C(=O)N1CC[C@@H](NC(=O)OC(C)(C)C)C1)c1cn2c(C(=O)NCC34CC5CC(CC(C5)C3)C4)cccc2n1` (stereo in doubt) [Compound 749, tert-butyl [1-(2-{5-[(adamantan-1-ylmethyl)carbamoyl]imidazo[1,2-a]pyridin-2-yl}propanoyl)pyrrolidin-3-yl]carbamate] was tested, and the IC50 [2] was under 2000 nM.
Work on `CCCC(CNC(=O)c1cccc2nc(CC(=O)N[C@@H]3CCCNC3)cn12)c1ccc(Cl)cc1` (stereo partly drawn) [Compound 925, N-[2-(4-chlorophenyl)pentyl]-2-{2-oxo-2-[(3R)-piperidin-3-ylamino]ethyl} imidazo [1,2-a]pyridine-5-carboxamide] yielded an IC50 [3] of under 2000 nM.
With `COCCN(C(=O)Cc1cn2c(C(=O)NC[C@@H]3CC[C@@H]4C[C@H]3C4(C)C)cccc2n1)C1CCNCC1` [Compound 567, N-{[(1R,2R,5R)-6,6-dimethylbicyclo[3.1.1]hept-2-yl]methyl}-2-{2-[(2-methoxyethyl) (piperidin-4-yl)amino]-2-oxoethyl} imidazo[1,2-a]pyridine-5-carboxamide] the IC50 [4] was under 2000 nM.
Work on `CC(C)[C@H]1CN(C(=O)Cc2cn3c(C(=O)NC[C@@H]4CC[C@@H]5C[C@H]4C5(C)C)cccc3n2)CCN1` [Compound 562, N-{[(1R,2R,5R)-6,6-dimethylbicyclo[3.1.1]hept-2-yl]methyl}-2-{2-[(3S)-3-isopropylpiperazin-1-yl]-2-oxoethyl}imidazo[1,2-a]pyridine-5-carboxamide] yielded an IC50 [4] of under 2000 nM.
In the case of `O=C(O)c1cccn(Cc2cn3c(C(=O)NCC45CC6CC(CC(C6)C4)C5)cccc3n2)c1=O` [Compound 351, 1-({5-[(adamantan-1-ylmethyl)carbamoyl]imidazo[1,2-a]pyridin-2-yl}methyl)-2-oxo-1,2-dihydropyridine-3-carboxylic acid], the IC50 [1] is reported as under 2000 nM.
With `CC(C)CC(CNC(=O)c1cccc2nc(C(=O)N3CCC4(CC3)OCCO4)cn12)c1ccccc1` (centres unmarked) [Compound 263, 2-(1,4-dioxa-8-azaspiro[4.5]dec-8-ylcarbonyl)-N-(4-methyl-2-phenylpentyl)imidazo [1,2-a]pyridine-5-carboxamide] the IC50 was under 2000 nM.
For `CC1(C)[C@H]2CC[C@@H](CNC(=O)c3cccc4nc(C(=O)N5CC[C@H](N)C5)cn34)[C@@H]1C2` [Compound 330, 2-{[(3S)-3-aminopyrrolidin-1-yl]carbonyl}-N-{[(1S,2R,5S)-6.6-dimethylbicyclo{3.1.1]hept-2-yl]methyl}imidazo[1,2-a]pyridine-5-carboxamide], the IC50 [1] was under 2000 nM.
In the case of `CC(C)CC(CNC(=O)c1cccc2nc(CC(=O)NCC(C)(C)C)cn12)c1ccccc1` (centres unmarked) [Compound 225, 2-{2-[(2,2-dimethylpropyl)amino]-2-oxoethyl}-N-(4-methyl-2-phenylpentyl) imidazo [1,2-a]pyridine-5-carboxamide], the IC50 [1] is reported as under 2000 nM.
`CN(C)CCCN(C(=O)c1cn2c(C(=O)NCC34CC5CC(CC(C5)C3)C4)cccc2n1)C1CCNCC1` [Compound 610, 5-N-(adamantan-1-ylmethyl)-2-N-[3-(dimethylamino)propyl]-2-N-piperidin-4-ylimidazo[1,2-a]pyridine-2,5-dicarboxamide] showed an IC50 [4] of under 2000 nM.
With `CCC(C)NC(=O)Cc1cn2c(C(=O)NCC3(c4cccnc4)CCCCC3)cccc2n1` (centres unmarked) [Compound 869, 2-[2-(sec-butylamino)-2-oxoethyl]-N-[(1-pyridin-3-ylcyclohexyl)methyl] imidazo[1,2-a] pyridine-5-carboxamide] the IC50 [3] was under 2000 nM.
In the case of `NC1CCCN(C(=O)CCc2cn3c(C(=O)NCC45CC6CC(CC(C6)C4)C5)cccc3n2)C1` (centres unmarked) [Compound 780, N-(adamantan-1-ylmethyl)-2-[3-(3-aminopiperidin-1-yl)-3-oxopropyl] imidazo[1,2-a] pyridine-5-carboxamide], the IC50 [2] is reported as under 2000 nM.
`O=C(NCCN1CCCCC1)c1cn2c(C(=O)NCC34CC5CC(CC(C5)C3)C4)cccc2n1` [Compound 650, 5-N-(adamantan-1-ylmethyl)-2-N-(2-piperidin-1-ylethyl)imidazo[1,2-a]pyridine-2,5-dicarboxamide] showed an IC50 [2] of under 2000 nM.
Compound `NCC1CN(C(=O)c2cn3c(C(=O)NCC45CC6CC(CC(C6)C4)C5)cccc3n2)C1` [Compound 634, N-(adamantan-1-ylmethyl)-2-{[3-(aminomethyl)azetidin-1-yl]carbonyl}imidazo[1,2-a]pyridine-5-carboxamide] has an IC50 [2] of under 2000 nM.
`O=C(NCC1(c2ccc(Cl)c(F)c2)CCCCC1)c1cccc2nc(CN3CCCC3)cn12` [Compound 1046, N-{[1-(4-chloro-3-fluorophenyl)cyclohexyl]methyl}-2-(pyrrolidin-1-ylmethyl) imidazo[1,2-a]pyridine-5-carboxamide] showed an IC50 (P2X7 calcium mobilization, Example 4A, 50% decrease in the fluorescence response of cells exposed to 80 μM of (2′(3′)-O-(4-benzoyl-benzoyl)adenosine 5′-triphosephate), read-out: IC50) of under 2000 nM.
With `CCOC(=O)C(Cc1ccccc1)c1cn2c(C(=O)NCC3(c4ccc(Cl)cc4)CCCCC3)cccc2n1` (centres unmarked) [Compound 933, ethyl 2-[5-({[1-(4-chlorophenyl)cyclohexyl]methyl}carbamoyl)imidazo[1,2-a]pyridin-2-yl]-3-phenylpropanoate] the IC50 [3] was under 2000 nM.
